According to PubChem BioAssay (NCI):
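How tested: cells in 96-well plates exposed to compound for 48 hours at five concentrations. TGI: total growth inhibition.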

Assays:
Assay in all cases: NCI anticancer screen, dose series, 48 h
[1] = system: 786-0 renal
[2] = system: A498 renal
[3] = system: A549 NSCLC
[4] = system: ACHN renal
[5] = system: BT-549 breast
[6] = system: CAKI-1 renal
[7] = system: CCRF-CEM leukemia
[8] = system: COLO 205 colon
[9] = system: DU-145 prostate
[10] = system: EKVX NSCLC
[11] = system: HCT-116 colon
[12] = system: HCT-15 colon
[13] = system: HL-60(TB) leukemia
[14] = system: HOP-62 NSCLC
[15] = system: HOP-92 NSCLC
[16] = system: HS 578T breast
[17] = system: HT29 colon
[18] = system: IGROV1 ovarian
[19] = system: K-562 leukemia
[20] = system: KM12 colon
[21] = system: LOX IMVI melanoma
[22] = system: M14 melanoma
[23] = system: MALME-3M melanoma
[24] = system: MCF7 breast
[25] = system: MDA-MB-231 breast
[26] = system: MDA-MB-435
[27] = system: MDA-N
[28] = system: MOLT-4 leukemia
[29] = system: NCI-H226 lung
[30] = system: NCI-H23 lung
[31] = system: NCI-H460 lung
[32] = system: NCI-H522 lung
[33] = system: NCI/ADR-RES ovarian
[34] = system: OVCAR-3 ovarian
[35] = system: OVCAR-4 ovarian
[36] = system: OVCAR-5 ovarian
[37] = system: OVCAR-8 ovarian
[38] = system: PC-3 prostate
[39] = system: RPMI-8226 leukemia
[40] = system: RXF 393 renal
[41] = system: SF-268 CNS
[42] = system: SF-295 CNS
[43] = system: SF-539 CNS
[44] = system: SK-MEL-2 melanoma
[45] = system: SK-MEL-28 melanoma
[46] = system: SK-MEL-5 melanoma
[47] = system: SK-OV-3 ovarian
[48] = system: SN12C renal
[49] = system: SNB-19 CNS
[50] = system: SR leukemia
[51] = system: SW-620 colon
[52] = system: T-47D breast
[53] = system: TK-10 renal
[54] = system: U251 CNS
[55] = system: UACC-257 melanoma
[56] = system: UACC-62 melanoma
[57] = system: UO-31 renal
[58] = system: HCC-2998 colon
[59] = system: SNB-75 CNS

COC1/C=C\C=C(/C)C(=O)NC2=CC(=O)C(=O)C(=C2O)CC(C)CC(OC)C(O)C(C)/C=C(\C)C1OC(N)=O (stereo not given)
TGI [1]: 24.3 µM | TGI [2]: > 100 µM | TGI [3]: > 100 µM | TGI [4]: > 82.1 µM | TGI [5]: > 100 µM | TGI [6]: > 42 µM | TGI [7]: 25.8 µM | TGI [8]: 13.3 µM | TGI [9]: 35.5 µM | TGI [10]: 32.7 µM | TGI [11]: 14.4 µM | TGI [12]: > 100 µM | TGI [13]: > 35.5 µM | TGI [14]: > 74.1 µM | TGI [15]: 21 µM | TGI [16]: > 100 µM | TGI [17]: 17.8 µM | TGI [18]: > 100 µM | TGI [19]: > 100 µM | TGI [20]: 5.57 µM | TGI [21]: 13.9 µM | TGI [22]: > 53.2 µM | TGI [23]: 21.7 µM | TGI [24]: > 42.4 µM | TGI [25]: 4.22 µM | TGI [26]: 11.8 µM | TGI [27]: 12.2 µM | TGI [28]: > 52.3 µM | TGI [29]: > 100 µM | TGI [30]: > 100 µM | TGI [31]: > 100 µM | TGI [32]: 18.3 µM | TGI [33]: > 100 µM | TGI [34]: 19.7 µM | TGI [35]: 22.1 µM | TGI [36]: > 100 µM | TGI [37]: > 52.4 µM | TGI [38]: > 37.7 µM | TGI [39]: 33.5 µM | TGI [40]: 27.5 µM | TGI [41]: > 58.9 µM | TGI [42]: > 100 µM | TGI [43]: 22.5 µM | TGI [44]: > 60.5 µM | TGI [45]: > 49.3 µM | TGI [46]: 43.7 µM | TGI [47]: > 100 µM | TGI [48]: 3.22 µM | TGI [49]: > 100 µM | TGI [50]: 25 µM | TGI [51]: 18.3 µM | TGI [52]: 70.9 µM | TGI [53]: > 57.5 µM | TGI [54]: > 40.3 µM | TGI [55]: > 36.3 µM | TGI [56]: > 32.6 µM | TGI [57]: 39.8 µM

NC(=O)C(=CNC(=S)c1ccncc1)C(N)=O
TGI [1]: > 100 µM | TGI [3]: > 100 µM | TGI [4]: > 100 µM | TGI [5]: > 100 µM | TGI [6]: > 100 µM | TGI [7]: > 100 µM | TGI [8]: > 100 µM | TGI [9]: > 100 µM | TGI [10]: > 100 µM | TGI [58]: > 100 µM | TGI [11]: > 100 µM | TGI [12]: > 100 µM | TGI [13]: > 100 µM | TGI [14]: > 100 µM | TGI [15]: > 100 µM | TGI [16]: > 100 µM | TGI [17]: > 100 µM | TGI [18]: > 100 µM | TGI [19]: > 100 µM | TGI [20]: > 100 µM | TGI [21]: > 100 µM | TGI [22]: > 100 µM | TGI [24]: > 100 µM | TGI [25]: > 100 µM | TGI [26]: > 100 µM | TGI [27]: > 100 µM | TGI [28]: > 100 µM | TGI [29]: > 100 µM | TGI [30]: > 100 µM | TGI [31]: > 100 µM | TGI [32]: > 100 µM | TGI [33]: > 100 µM | TGI [34]: > 100 µM | TGI [35]: > 100 µM | TGI [36]: > 100 µM | TGI [37]: > 100 µM | TGI [38]: > 100 µM | TGI [39]: > 100 µM | TGI [40]: > 100 µM | TGI [41]: > 100 µM | TGI [42]: > 100 µM | TGI [43]: > 100 µM | TGI [44]: > 100 µM | TGI [46]: > 100 µM | TGI [47]: > 100 µM | TGI [48]: > 100 µM | TGI [49]: > 100 µM | TGI [50]: > 100 µM | TGI [51]: > 100 µM | TGI [52]: > 100 µM | TGI [53]: > 100 µM | TGI [54]: > 100 µM | TGI [55]: > 100 µM | TGI [56]: > 100 µM | TGI [57]: > 100 µM

COCC1OC(N2C(=O)NC(=O)[C@@H]3C=C4CCCCC4=C[C@@H]32)C(OC)C1OC (stereo not given in full)
TGI [1]: > 100 µM | TGI [2]: > 100 µM | TGI [3]: > 100 µM | TGI [4]: > 100 µM | TGI [5]: > 100 µM | TGI [9]: > 100 µM | TGI [10]: > 100 µM | TGI [11]: > 100 µM | TGI [12]: > 100 µM | TGI [13]: > 100 µM | TGI [14]: > 100 µM | TGI [15]: > 100 µM | TGI [16]: > 100 µM | TGI [17]: > 100 µM | TGI [18]: > 100 µM | TGI [19]: > 100 µM | TGI [20]: > 100 µM | TGI [21]: > 100 µM | TGI [22]: > 100 µM | TGI [23]: > 100 µM | TGI [24]: > 100 µM | TGI [25]: > 100 µM | TGI [26]: > 100 µM | TGI [27]: > 100 µM | TGI [28]: > 100 µM | TGI [29]: > 100 µM | TGI [31]: > 100 µM | TGI [32]: > 100 µM | TGI [33]: > 100 µM | TGI [34]: > 100 µM | TGI [35]: > 100 µM | TGI [36]: > 100 µM | TGI [37]: > 100 µM | TGI [38]: > 100 µM | TGI [39]: > 100 µM | TGI [41]: > 100 µM | TGI [42]: > 100 µM | TGI [43]: > 100 µM | TGI [44]: > 100 µM | TGI [45]: > 100 µM | TGI [47]: > 100 µM | TGI [48]: > 100 µM | TGI [49]: > 100 µM | TGI [59]: > 100 µM | TGI [50]: > 100 µM | TGI [51]: > 100 µM | TGI [52]: > 100 µM | TGI [53]: > 100 µM | TGI [54]: > 100 µM | TGI [55]: > 100 µM | TGI [56]: > 100 µM | TGI [57]: > 100 µM

CC(=S)N=Cc1c(O)cc(C)oc1=O
TGI [1]: > 100 µM | TGI [2]: > 100 µM | TGI [3]: > 100 µM | TGI [4]: > 100 µM | TGI [5]: > 100 µM | TGI [6]: > 100 µM | TGI [7]: > 100 µM | TGI [8]: > 100 µM | TGI [9]: > 100 µM | TGI [10]: > 100 µM | TGI [58]: > 100 µM | TGI [11]: > 100 µM | TGI [12]: > 100 µM | TGI [13]: > 100 µM | TGI [14]: > 100 µM | TGI [15]: > 100 µM | TGI [16]: > 100 µM | TGI [17]: > 100 µM | TGI [18]: > 100 µM | TGI [19]: > 100 µM | TGI [20]: > 100 µM | TGI [21]: > 100 µM | TGI [22]: > 100 µM | TGI [24]: > 100 µM | TGI [25]: > 100 µM | TGI [26]: > 100 µM | TGI [27]: > 100 µM | TGI [28]: > 100 µM | TGI [29]: > 100 µM | TGI [30]: > 100 µM | TGI [31]: > 100 µM | TGI [32]: > 100 µM | TGI [33]: > 100 µM | TGI [34]: > 100 µM | TGI [35]: > 100 µM | TGI [36]: > 100 µM | TGI [37]: > 100 µM | TGI [38]: > 100 µM | TGI [39]: > 100 µM | TGI [40]: > 100 µM | TGI [41]: > 100 µM | TGI [42]: > 100 µM | TGI [43]: > 100 µM | TGI [44]: > 100 µM | TGI [46]: > 100 µM | TGI [47]: > 100 µM | TGI [48]: > 100 µM | TGI [49]: > 100 µM | TGI [59]: > 100 µM | TGI [51]: > 100 µM | TGI [52]: > 100 µM | TGI [53]: > 100 µM | TGI [54]: > 100 µM | TGI [55]: > 100 µM | TGI [56]: > 100 µM | TGI [57]: > 100 µM
